How the values were obtained:
rat Sertoli cell TJs = details: cited from earlier work
[1] = test system: human Sertoli cells (MM-HSe-2305 cells); assay: BrdU proliferation of human Sertoli cells in response to FSH treatment; type: cell-based; details: 200-ng/ml FSH for 1 week; >50 fields; p<0.001 vs without FSH
Description: It has been reported that cultured rat Sertoli cells, proliferate in response to recombinant FSH (Buzzard, Wreford et al. 2002). We determined the response of the human cells to FSH treatment to provide further evidence that they are Sertoli cells. The human Sertoli cells (MM-HSe-2305 cells; 7,000 per well) were placed in 8-well chamber slides and incubated with control media or with media containing 200-ng/ml FSH (Sigma-Aldrich) for 1 week. Then the cells were labeled with BrdU that is incorporated into nuclei during DNA synthesis prior to mitosis. The slides were stained with anti-BrdU antibody (finally stained by Texas red) followed by staining with an antibody to FSHr (finally with FITC), and nuclei marked by bisbenzamide.
Briefly, the MM-HSE-2305 cells were labeled with BrdU (Roche; 100 μM) at 37° C./[…] for 2 hours then washed three times with PBS followed by fixing with 4% PFA for 30 min. […] Fluorescence was enhanced by incubating with ABC solution (Vector laboratories) for 30 min. Immunoreactivity was visualized by fluorescence microscopy using avidin-conjugated Texas red (1:200 in PBS) for 1 hour.
Photomicrographs were taken with different filters of the same field. The percentage of proliferating Sertoli cells was determined by the counting the number of FSHr, BrdU double positive cells and dividing this by the total number of cells per field. […]

Molecule	effect on permeability of rodent Sertoli cell monolayers (rat Sertoli cell TJs; effect lasted for a number of days)	effect on Sertoli cell TJs (rat Sertoli cell TJs; in vivo, and in vitro at the 5 and 10 μM concentration)	percent of cells undergoing proliferation (FSHr, BrdU double positive cells / total cells) [1] [%]
[Cl][Cd][Cl] [Cadmium chloride, cadmium chloride]	increased the permeability	damage rat Sertoli cell TJs	–
follicle stimulating hormone [FSH]	–	–	12.35

— patent US10851348B2, “Proliferative primary human Sertoli cell cultures and their applications” (Mandalmed, Inc., priority 2006, dated 2020)
